Data from patent US10376520B2, “Methods for the treatment of cardiovascular disorders” (Galapagos NV, priority 2015, dated 2019).

Tested on: RA patients
Assay: Total cholesterol determination, Study 1 (RA patients with inadequate response to methotrexate, add-on to MTX)
Assay type: in vivo, human
Protocol: Double-blind, placebo-controlled add on study in subjects with moderately to severely active RA who have an inadequate response to methotrexate (MTX) (oral or parenteral).
595 subjects randomized to one of 6 dose regimens of Compound 1 (dosed as a [Compound 1:HCl:3H2O]) (3 dose levels administered either once or twice daily) or placebo on top of each subject's stable dose of MTX.
Compound 1 (dosed as a [Compound 1:HCl:3H2O]) is dosed for twelve weeks once daily (q.d.) (50 mg, 100 mg or 200 mg) or twice daily (b.i.d.) (25 mg, 50 mg or 100 mg); or placebo.
At Week 12, the subjects on placebo who have not achieved 20% improvement in swollen joint count (SJC66) and tender joint count (TJC68) are re-randomized automatically to receive Compound 1 (dosed as a [Compound 1:HCl:3H2O]) either at 100 mg q.d. or 50 mg b.i.d. doses in a blinded fashion; subjects on 50 mg q.d. who have not achieved 20% improvement in SJC66 and TJC68 will be assigned to 100 mg q.d. and subjects on 25 mg b.i.d. that have not achieved a 20% improvement in SJC66 and TJC68 will be assigned to 50 mg b.i.d. Subjects who switch treatment at week 12 are handled as if they discontinued at week 12 for the purpose of statistical analysis, whereas subjects in the other groups will maintain their randomized treatment until Week 24.
This method is based on the determination of Δ^4 cholestenone after enzymatic cleavage of the cholesterol ester by cholesterol esterase, conversion of cholesterol by cholesterol oxidase, and subsequent measurement by the Trinder reaction of the hydrogen peroxide formed (Allain et al., 1974).
Cholesterol esters are cleaved by the action of cholesterol esterase to yield free cholesterol and fatty acids. Cholesterol oxidase then catalyzes the oxidation of cholesterol to cholest-4-en-3-one and hydrogen peroxide. In the presence of peroxidase, the hydrogen peroxide formed effects the oxidative coupling of phenol and 4-aminophenazone to form a red quinone-imine dye. The color intensity of the dye formed is directly proportional to the cholesterol concentration. It is determined by measuring the increase in absorbance.
Human serum and plasma samples cholesterol determination was done on a Roche/Hitachi Cobas c 701/702 system which automatically calculate the analyte concentration of each sample.

[1] = Study 1 12 weeks results, 2 x 25 mg b.i.d., week 2
[2] = Study 1 12 weeks results, 2 x 25 mg b.i.d., week 4
[3] = Study 1 12 weeks results, 2 x 25 mg b.i.d., week 8
[4] = Study 1 12 weeks results, 2 x 25 mg b.i.d., week 12
[5] = Study 1 12 weeks results, 2 x 50 mg b.i.d., week 1
[6] = Study 1 12 weeks results, 2 x 50 mg b.i.d., week 2
[7] = Study 1 12 weeks results, 2 x 50 mg b.i.d., week 4
[8] = Study 1 12 weeks results, 2 x 50 mg b.i.d., week 8
[9] = Study 1 12 weeks results, 2 x 50 mg b.i.d., week 12
[10] = Study 1 12 weeks results, 2 x 100 mg b.i.d., week 1
[11] = Study 1 12 weeks results, 2 x 100 mg b.i.d., week 2
[12] = Study 1 12 weeks results, 2 x 100 mg b.i.d., week 4
[13] = Study 1 12 weeks results, 2 x 100 mg b.i.d., week 8
[14] = Study 1 12 weeks results, 2 x 100 mg b.i.d., week 12
[15] = Study 1 24 weeks results, continued 50 mg q.d., week 1
[16] = Study 1 24 weeks results, continued 50 mg q.d., week 2
[17] = Study 1 24 weeks results, continued 50 mg q.d., week 4
[18] = Study 1 24 weeks results, continued 50 mg q.d., week 8
[19] = Study 1 24 weeks results, continued 50 mg q.d., week 12
[20] = Study 1 24 weeks results, continued 50 mg q.d., week 16
[21] = Study 1 24 weeks results, continued 50 mg q.d., week 20
[22] = Study 1 24 weeks results, continued 50 mg q.d., week 24

O=C(Nc1nc2cccc(-c3ccc(CN4CCS(=O)(=O)CC4)cc3)n2n1)C1CC1 [Compound 1, cyclopropanecarboxylic acid {5-[4-(1,1-dioxo-thiomorpholin-4-ylmethyl)-phenyl]-[1,2,4]triazolo[1,5-a]pyridin-2yl}-amide]
[total cholesterol] Mean CFB (Study 1 12 weeks results, 2 x 25 mg b.i.d., week 1): 0.1 mmol/L | [Total cholesterol] Median CFB [1]: 0.10 mmol/L | [total cholesterol] Mean CFB [1]: 0.1 mmol/L | [Total cholesterol] Median CFB [2]: 0.05 mmol/L | [total cholesterol] Mean CFB [2]: 0.1 mmol/L | [Total cholesterol] Median CFB [3]: 0.05 mmol/L | [total cholesterol] Mean CFB [3]: 0.1 mmol/L | [Total cholesterol] Median CFB [4]: 0.13 mmol/L | [total cholesterol] Mean CFB [4]: 0.2 mmol/L | [Total cholesterol] Median CFB [5]: 0.21 mmol/L | [total cholesterol] Mean CFB [5]: 0.1 mmol/L | [Total cholesterol] Median CFB [6]: 0.18 mmol/L | [total cholesterol] Mean CFB [6]: 0.1 mmol/L | [Total cholesterol] Median CFB [7]: 0.28 mmol/L | [total cholesterol] Mean CFB [7]: 0.3 mmol/L | [Total cholesterol] Median CFB [8]: 0.22 mmol/L | [total cholesterol] Mean CFB [8]: 0.2 mmol/L | [Total cholesterol] Median CFB [9]: 0.23 mmol/L | [total cholesterol] Mean CFB [9]: 0.2 mmol/L | [Total cholesterol] Median CFB [10]: 0.28 mmol/L | [total cholesterol] Mean CFB [10]: 0.3 mmol/L | [Total cholesterol] Median CFB [11]: 0.31 mmol/L | [total cholesterol] Mean CFB [11]: 0.4 mmol/L | [Total cholesterol] Median CFB [12]: 0.45 mmol/L | [total cholesterol] Mean CFB [12]: 0.4 mmol/L | [Total cholesterol] Median CFB [13]: 0.55 mmol/L | [total cholesterol] Mean CFB [13]: 0.6 mmol/L | [Total cholesterol] Median CFB [14]: 0.80 mmol/L | [total cholesterol] Mean CFB [14]: 0.6 mmol/L | [total cholesterol] Mean CFB (Study 1 24 weeks results, continued 25 mg b.i.d, week 1): 0.11 mmol/L | [total cholesterol] Mean CFB (Study 1 24 weeks results, continued 25 mg b.i.d, week 2): 0.12 mmol/L | [total cholesterol] Mean CFB (Study 1 24 weeks results, continued 25 mg b.i.d, week 4): 0.14 mmol/L | [total cholesterol] Mean CFB (Study 1 24 weeks results, continued 25 mg b.i.d, week 8): 0.15 mmol/L | [total cholesterol] Mean CFB (Study 1 24 weeks results, continued 25 mg b.i.d, week 12): 0.26 mmol/L | [total cholesterol] Mean CFB (Study 1 24 weeks results, continued 25 mg b.i.d, week 16): 0.20 mmol/L | [total cholesterol] Mean CFB (Study 1 24 weeks results, continued 25 mg b.i.d, week 20): 0.27 mmol/L | [total cholesterol] Mean CFB (Study 1 24 weeks results, continued 25 mg b.i.d, week 24): 0.24 mmol/L | [total cholesterol] Mean CFB (Study 1 24 weeks results, continued 50 mg b.i.d., week 1): 0.15 mmol/L | [total cholesterol] Mean CFB (Study 1 24 weeks results, continued 50 mg b.i.d., week 2): 0.14 mmol/L | [total cholesterol] Mean CFB (Study 1 24 weeks results, continued 50 mg b.i.d., week 4): 0.28 mmol/L | [total cholesterol] Mean CFB (Study 1 24 weeks results, continued 50 mg b.i.d., week 8): 0.21 mmol/L | [total cholesterol] Mean CFB (Study 1 24 weeks results, continued 50 mg b.i.d., week 12): 0.23 mmol/L | [total cholesterol] Mean CFB (Study 1 24 weeks results, continued 50 mg b.i.d., week 16): 0.24 mmol/L | [total cholesterol] Mean CFB (Study 1 24 weeks results, continued 50 mg b.i.d., week 20): 0.32 mmol/L | [total cholesterol] Mean CFB (Study 1 24 weeks results, continued 50 mg b.i.d., week 24): 0.34 mmol/L | [Total cholesterol] Median CFB [15]: 0.00 mmol/L | [total cholesterol] Mean CFB [15]: 0.03 mmol/L | [Total cholesterol] Median CFB [16]: 0.00 mmol/L | [total cholesterol] Mean CFB [16]: -0.01 mmol/L | [Total cholesterol] Median CFB [17]: 0.05 mmol/L | [total cholesterol] Mean CFB [17]: 0.05 mmol/L | [Total cholesterol] Median CFB [18]: 0.20 mmol/L | [total cholesterol] Mean CFB [18]: 0.14 mmol/L | [Total cholesterol] Median CFB [19]: 0.25 mmol/L | [total cholesterol] Mean CFB [19]: 0.24 mmol/L | [Total cholesterol] Median CFB [20]: 0.25 mmol/L | [total cholesterol] Mean CFB [20]: 0.21 mmol/L | [Total cholesterol] Median CFB [21]: 0.25 mmol/L | [total cholesterol] Mean CFB [21]: 0.20 mmol/L | [Total cholesterol] Median CFB [22]: 0.30 mmol/L | [total cholesterol] Mean CFB [22]: 0.28 mmol/L | [total cholesterol] Mean CFB (Study 1 24 weeks results, continued 100 mg b.i.d., week 1): 0.30 mmol/L
